Data: US11389429B2, “Use of carbamate compound for preventing, alleviating or treating myotonia” (SK BIOPHARMACEUTICALS CO., LTD., priority 2017, dated 2022)

Tested on: myotonia induced by anthracene-9-carboxylic acid (9-AC) in Sprague-Dawley rats
Assay: Myotonia induction model by drug (9-AC) treatment, righting reflex test
Type: in vivo, rat
Parameters: Average Righting reflex time (TRR): unit not given here
Settings: for Average Righting reflex time (TRR): 9-AC given 20 minutes later
Description: The efficacy for myotonia of the compounds of the above Formula 1 can be confirmed by the use of known models. For example, the efficacy of the compounds of the above Formula 1 may be evaluated in a myotonia model caused by anthracene-9-carboxylic acid (9-AC). Anthracene-9-carboxylic acid can cause myotonic conditions by blocking the chloride channel-1 of muscle cells. Myotonic conditions are induced by intraperitoneal injection once to experimental animals (rats), and can be evaluated by measuring the righting reflex time. Righting reflex is a reflex behavior in which the animal's body returns from an abnormal position to a normal position, and the degree of myotonia can be evaluated by measurement of righting reflex behavior due to abnormality of muscle tension/relaxation after 9-AC treatment. Specifically, the degree of spasticity is evaluated by measuring the time that it takes for the four feet of the experimental animal to land normally when the experimental animal is turned upside down and the posture is straightened (time of righting reflex, TRR).
In the experimental animal model of myotonia induction by drug (9-AC) treatment, it was reported that the time to return to normal posture after righting reflex was delayed when measuring the rat's spasticity conditions using righting reflex (Desaphy et al., 2013, Neuropharmacology, 65: 21-27).
As an experimental model, Sprague-Dawley rats (350-400 g, 10 weeks old, a total of 36 males) were used (Orient Bio Inc.). The drug anthracene-9-carboxylic acid (9-AC) used to induce myotonia is a drug that inhibits chloride channel-1 of skeletal muscle cells and induces hyperexcitation of muscle cells. The control group (30% PEG300) or test compound was intraperitoneally administered to the rat once in each dose (15, 20 mg/kg). Test compounds were diluted in 30% PEG300 solution to a final dose of 5 ml/kg. After 20 minutes of administration of control group or test compound, 0.3% NaHCO3 solution containing 6 mg/ml of 9-AC was intraperitoneally administered by 10 ml/kg. After administration of 9-AC, righting reflex tests were performed at 30 minutes and 1 hour, respectively, and the time to return to normal posture (time of righting reflex, TRR) was measured.
Statistical analysis was used for the one-way ANOVA (1-way ANOVA) and Tukey's multiple comparison test, and outliers were excluded through the ROUT outlier analysis test (Q=1%) (in the 30-minute test, excluding each one in the control group and the 20 mg/kg treatment group; in the 1-hour test, excluding one in the 20 mg/kg treatment group). The results were derived from three repeated experiments.

NC(=O)O[C@@H](Cn1ncnn1)c1ccccc1Cl [Test compound, carbamic acid (R)-1-(2-chlorophenyl)-2-tetrazol-2-yl-ethyl ester]
Average Righting reflex time (TRR) (15 mg/kg intraperitoneal, measured 30 minutes after 9-AC, n = 9): 2.282 ± 0.304
Average Righting reflex time (TRR) (15 mg/kg intraperitoneal, measured 1 hour after 9-AC, n = 9): 4.978 ± 0.944
Average Righting reflex time (TRR) (20 mg/kg intraperitoneal, measured 30 minutes after 9-AC, n = 8): 1.85 ± 0.266
Average Righting reflex time (TRR) (20 mg/kg intraperitoneal, measured 1 hour after 9-AC, n = 8): 2.515 ± 0.328
Time to return to normal posture compared to the control group (statistical significance) (20 mg/kg, at both 30 minutes and 1 hour after 9-AC, P<0.05, one-way ANOVA and Tukey's test): significant time reduction effect
Time to return to normal posture compared to the control group in righting reflex test (15 and 20 mg/kg, 30 minutes and 1 hour after spasticity was induced): decrease in time to return to normal posture
